Source: PMC9919513, “A Practical Approach to Bicyclic Carbamoyl Pyridones with Application to the Synthesis of HIV-1 Integrase Strand Transfer Inhibitors” (Molecules, 2023)
Read-outs that look alike come from different tables or passages of the source.

Test system: HIV-1 vectors that carry WT IN
Assay: Single-round HIV-1 replication antiviral assay, wild-type IN
Type: cell-based
Settings: for EC50: 48 h; for Ratio of the antiviral potencies after and before hydrogenation (WT): EC50 of saturated 7 over EC50 of unsaturated 6, WT IN
Protocol: The bicyclic metal chelating carbamoyl pyridone moiety is common to second-generation tricyclic INSTIs (3, 4, and 5, Figure 1). Analogs of the current study are simplified analogs that lack a third ring. […] The halogen substitution pattern of the benzylamide moiety can affect inhibitory potencies of INSTIs. We determined the antiviral potencies of our compounds in single round HIV-1 replication assays using viral constructs with wild-type IN [31]. Cytotoxicities were determined as previously described. […] In general, the potencies of bicyclic analogs 6 having an unsaturated bond at the C4 position were insensitive to differences in N-methyl substituents. […] Analogs 6g and 6h represent simplified analogs of DTG (3) and CAB (5), respectively, in which the third ring (C-ring) is opened and having doble bond in B-ring, but lacking α-methyl stereochemistry.
Human embryonic kidney cell culture cell line 293 was acquired from the American Type Culture Collection (ATCC). The human osteosarcoma cell line, HOS, was obtained from Dr. Richard Schwartz (Michigan State University, East Lansing, MI, USA) and grown in Dulbecco’s modified Eagle’s medium (Invitrogen, Carlsbad, CA, USA) supplemented with 5% (v/v) fetal bovine serum, 5% newborn calf serum, and penicillin (50 units/mL) plus streptomycin (50 µg/mL; Quality Biological, Gaithersburg, MD, USA). The transfection vector, pNLNgoMIVR-ΔLUC was made from pNLNgoMIVR-ΔEnv.HSA by removing the HSA reporter gene and replacing it with a luciferase reporter gene between the NotI and XhoI restriction sites. To produce the new IN mutant S230N used in this study, the IN open reading frame was removed from pNLNgoMIVR-ΔENV.LUC by digestion with KpnI and SalI, and the resulting fragment was inserted between the KpnI and SalI sites of pBluescript KS+. Using that construct as the wild-type template, we prepared the following HIV-1 IN mutant S230N using the QuikChange II XL site-directed mutagenesis kit (Agilent Technologies, Santa Clara, CA, USA) protocol. The following sense oligonucleotides were used with matching cognate antisense oligonucleotides (not shown) (Integrated DNA Technologies, Coralville, IA, USA) in the mutagenesis: S230N 5′-[…]-3′. The DNA sequence of the IN mutant S230N construct was verified independently by DNA sequence determination. The mutated IN coding sequences from pBluescript KS+ were then subcloned into pNLNgoMIVR-ΔEnv.LUC (between the KpnI and SalI sites) to produce mutant HIV-1 constructs, which were also checked by DNA sequencing. […]. On the day prior to transfection, 293 cells were plated on 100 mm diameter dishes at a density of 1.5 × 10^6 cells per plate. Next, 293 cells were transfected with 16 µg of pNLNgoMIVR^-ΔLUC and 4 µg of pHCMV-g (obtained from Dr. Jane Burns, University of California, San Diego) using the calcium phosphate method. At approximately 6 h after the calcium phosphate precipitate was added, 293 cells were washed twice with phosphate-buffered saline (PBS) and incubated with fresh media for 48 h. The virus-containing supernatants were then harvested, clarified by low-speed centrifugation, filtrated, and diluted for preparation in antiviral infection assays. On the day prior to the screen, HOS cells were seeded in a 96-well luminescence cell culture plate at a density of 4000 cells in 100 µL per well. On the day of the screen for cellular cytotoxicity determination, cells were treated with compounds from a concentration range of 250 µM to 0.05 µM and then incubated at 37 °C for 48 h. On the day of the screen for antiviral activity infection assays, cells were treated with compounds from a concentration range of 5 µM to 0.0001 µM using 11 serial dilutions and then incubated at 37 °C for 3 h. After compound incorporation and activation in the cell, 100 µL of virus-stock (WT or mutant) diluted to achieve a luciferase signal between 0.2 and 1.5 Relative Luciferase Units (RLUs) was added to each well and further incubated at 37 °C for 48 h. […]

[1] = Human immunodeficiency virus 1, HOS, read-out: EC50, antiviral potency, WT IN, VSV-g-pseudotyped HIV-1 luciferase vector with WT IN, HOS cells, 48 h
[2] = read-out: EC50, antiviral potency, WT IN, VSV-g-pseudotyped HIV-1 luciferase vector with WT IN, HOS cells

O=C(NCc1ccc(F)cc1F)c1cn2ccn(CCCCCCO)c(=O)c2c(O)c1=O [Compound 6c, N-(2,4-Difluorobenzyl)-9-hydroxy-2-(6-hydroxyhexyl)-1,8-dioxo-1,8-dihydro-2H-pyrido [1,2-a]pyrazine-7-carboxamide]
EC50 [1]: 0.0048 ± 0.0009 µM

O=C(NCc1ccc(F)cc1F)c1cn2ccn(CCCCCO)c(=O)c2c(O)c1=O [Compound 6d, N-(2,4-Difluorobenzyl)-9-hydroxy-2-(5-hydroxypentyl)-1,8-dioxo-1,8-dihydro-2H-pyrido [1,2-a]pyrazine-7-carboxamide]
EC50 [1]: ~0.011 µM
EC50 [2]: 0.0108 ± 0.0017 µM

O=C(NCc1ccc(F)cc1F)c1cn2ccn(CCCCO)c(=O)c2c(O)c1=O [Compound 6e, N-(2,4-Difluorobenzyl)-9-hydroxy-2-(4-hydroxybutyl)-1,8-dioxo-1,8-dihydro-2H-pyrido [1,2-a]pyrazine-7-carboxamide]
EC50 [1]: ~0.017 µM
EC50 [2]: 0.0166 ± 0.002 µM

O=C(NCc1ccc(F)cc1F)c1cn2c(c(O)c1=O)C(=O)N(CCCCCCO)CC2 [Compound 7c, N-(2,4-Difluorobenzyl)-9-hydroxy-2-(6-hydroxyhexyl)-1,8-dioxo-1,3,4,8-tetrahydro-2H-pyrido [1,2-a]pyrazine-7-carboxamide]
Ratio of the antiviral potencies after and before hydrogenation (WT): 6.6
EC50 [1]: 0.0317 ± 0.0038 µM

O=C(NCc1ccc(F)cc1F)c1cn2c(c(O)c1=O)C(=O)N(CCCCO)CC2 [Compound 7e, N-(2,4-Difluorobenzyl)-9-hydroxy-2-(4-hydroxybutyl)-1,8-dioxo-1,3,4,8-tetrahydro-2H-pyrido [1,2-a]pyrazine-7-carboxamide]
Ratio of the antiviral potencies after and before hydrogenation (WT): 4.6
EC50 [1]: 0.0757 ± 0.0074 µM
